Patent publication US20170369928A1, “METHOD FOR EVALUATING DNA DAMAGE FROM ANALYTE” (SOGANG UNIVERSITY RESEARCH FOUNDATION, priority 2016, published 2017)

Assays:
[1] = test system: Escherichia coli; conditions: 30 minutes incubation in ethanol
[2] = test system: Escherichia coli; assay: single molecule DNA damage analysis (visualization of damaged lesions in genomic DNA of agarose-embedded cells); format: cell-based, Escherichia coli K-12 MG1655
Procedure: Escherichia coli K-12 MG1655 cells were grown in 5 mL LB broths in a shaking incubator (220 rpm) at 37° C. for six hours. Bacterial cells were harvested by centrifugation (10,000×g, 10 min) and washed twice with 0.85% NaCl solution and re-suspended in the same solution. The cell-suspension was then diluted such that OD600 was approximately between 0.5 and 1 and used for subsequent reactions.
Bacterial suspension (OD600=0.5) was mixed with 2% LGT agarose solution and then dispensed as 20 μL droplets on a surface and solidified in the refrigerator (4° C.) for 10 minutes. […] After incubation, all these plugs were washed in 0.85% NaCl solution for half an hour.
After alcohol treatment, bacteria embedded agarose plugs were subjected to lysis with proteinase K solution (50 units in 500 μL, Tris 10 mM and EDTA 1 mM, pH 8.0 (1×TE)) at 42° C. for 150 min. The plugs were then washed in 1 mL 1×TE overnight. For removing oxidized base adducts, agarose plugs were incubated with a mixture of 10 units Fpg, 10 units Nfo, and 20 units Nei in NEB buffer2 (50 mM NaCl, 10 mM Tris-HCl, 10 mM MgCl2, 1 mM DTT, pH 7.9) at 37° C. for one hour. After enzyme treatment, the plugs were washed twice with 1 mL 1×TE buffer for half-an-hour. The plugs were then incubated with 5 units DNA Polymerase I, 1 mM AlexaFluor-647 labeled dUTP and dNTP mix (1 mM dATP, 1 mM dGTP, 100 μM dCTP, 100 μM dTTP) in the polymerase reaction buffer (50 mM Tris-HCl, 1 mM DTT, 10 mM MgCl2, pH 7.5) at 37° C. for one hour to label gaps or nicks. […] After nick translation, the plugs were washed three times in 1 mL 1×TE buffer for one hour. Then agarose plugs were melted in 400 μL 1×TE buffer at 65° C. for 15 min and stained with 1 μM YOYO-1.
A PDMS device was mounted on the positively charged surface. Then, the solution of DNA molecules melted from low gelling temperature agarose plug was loaded onto the entrance of the microfluidic channels. While the solution moved through the microchannels by capillary action, DNA molecules were elongated and deposited on the positively charged surface.

CCO [ethanol, Ethanol]
ethanol concentration above which bacterial cells could not survive [1]: above 17%
number of DNA lesions corresponding to 17% ethanol ([2]; 17% ethanol, 30 minutes, glycosylase mix): 16.4 lesions/genome
DNA length per one lesion at 17% ethanol ([2]; 17% ethanol, 30 minutes, glycosylase mix, one lesion per ~300 kb): ~300 kb
increase in number of DNA lesions with every 1% increase in ethanol concentration ([2]; E. coli embedded agarose plug, 30 minutes incubation, ethanol 5%-40%, glycosylase mix (Fpg, Nfo, Nei), linear fit r^2=0.98): 0.88 lesions/genome
labels per genome, ethanol incubation without glycosylase treatment ([2]; without glycosylase treatment (triangles in FIG. 2A), 30 minutes incubation): 1.1-1.4 labels per genome
